Data as given in patent US20250009660A1, “LIPID COMPOUND, LIPOSOME, EXOSOME, LIPID NANOPARTICLE, AND DRUG DELIVERY SYSTEM” (NAGASAKI UNIVERSITY, priority 2021, published 2025).
Entries after “also recorded” stand apart in the source; their conditions may differ.

Experiments:
NIH3T3 = assay: Evaluation of cell binding properties / cell uptake of modified liposome; assay type: cell-based, Mouse; settings: NIH3T3 cells; for cell uptake (cell binding properties): rhodamine-labeled liposome modified with the lipid compound (FIG. 13)
Source text: (§1) The liposome was modified with a lipid compound by a post-modification method using NanoAssemblr (nano pharmaceutical production apparatus; manufactured by Precision NanoSystems Inc.).

C26 = assay: as above; assay type: cell-based, Mouse; settings: C26 cells; for cell uptake (cell binding properties): rhodamine-labeled liposome modified with the lipid compound (FIG. 13)
Source text: as §1

[1] = liposome modified with the lipid, compared with KK-(EK)4 lipid-modified liposome (FIG. 15)

## K-(EK)4-dipalmitoyllysine [K1]
NIH3T3
  cell uptake (cell binding properties): an increase in cell uptake was observed compared with the unmodified liposome
C26
  cell uptake (cell binding properties): an increase in cell uptake was observed compared with the unmodified liposome

## KK-(EK)4-dipalmitoyllysine [K2]
NIH3T3
  cell uptake (cell binding properties): an increase in cell uptake was observed compared with the unmodified liposome; also recorded: In comparison with K1, the uptake of K2 increased in all of the cells
C26
  cell uptake (cell binding properties): an increase in cell uptake was observed compared with the unmodified liposome; also recorded: In comparison with K1, the uptake of K2 increased in all of the cells

## KKK-(EK)4-dipalmitoyllysine [K3]
NIH3T3
  cell uptake (cell binding properties): an increase in cell uptake was observed compared with the unmodified liposome; also recorded: the uptake of K3 and K4 when compared with K2 was the same
C26
  cell uptake (cell binding properties): an increase in cell uptake was observed compared with the unmodified liposome; also recorded: the uptake of K3 and K4 when compared with K2 was the same

## KKKK-(EK)4-dipalmitoyllysine [K4]
NIH3T3
  cell uptake (cell binding properties): an increase in cell uptake was observed compared with the unmodified liposome; also recorded: the uptake of K3 and K4 when compared with K2 was the same
C26
  cell uptake (cell binding properties): an increase in cell uptake was observed compared with the unmodified liposome; also recorded: the uptake of K3 and K4 when compared with K2 was the same

## RR-(EK)4-dipalmitoyllysine [RR-(EK)4 lipid]
NIH3T3; [1]
  cell binding properties: the same cell binding properties were exhibited
C26; [1]
  cell binding properties: the same cell binding properties were exhibited
